Each structure is given as a SMILES string.

Consider 15 compounds from patent publication US20220340597A1, “HEXAHYDRO-1H-PYRAZINO[1,2-A]PYRAZINE COMPOUNDS FOR THE TREATMENT OF AUTOIMMUNE DISEASE” (Hoffmann-La Roche Inc., priority 2019, published 2022).

In one test the target is T1, human TLR8 (Homo sapiens, UniProt Q9NR97).
T1 sequence (Q9NR97 27-1041): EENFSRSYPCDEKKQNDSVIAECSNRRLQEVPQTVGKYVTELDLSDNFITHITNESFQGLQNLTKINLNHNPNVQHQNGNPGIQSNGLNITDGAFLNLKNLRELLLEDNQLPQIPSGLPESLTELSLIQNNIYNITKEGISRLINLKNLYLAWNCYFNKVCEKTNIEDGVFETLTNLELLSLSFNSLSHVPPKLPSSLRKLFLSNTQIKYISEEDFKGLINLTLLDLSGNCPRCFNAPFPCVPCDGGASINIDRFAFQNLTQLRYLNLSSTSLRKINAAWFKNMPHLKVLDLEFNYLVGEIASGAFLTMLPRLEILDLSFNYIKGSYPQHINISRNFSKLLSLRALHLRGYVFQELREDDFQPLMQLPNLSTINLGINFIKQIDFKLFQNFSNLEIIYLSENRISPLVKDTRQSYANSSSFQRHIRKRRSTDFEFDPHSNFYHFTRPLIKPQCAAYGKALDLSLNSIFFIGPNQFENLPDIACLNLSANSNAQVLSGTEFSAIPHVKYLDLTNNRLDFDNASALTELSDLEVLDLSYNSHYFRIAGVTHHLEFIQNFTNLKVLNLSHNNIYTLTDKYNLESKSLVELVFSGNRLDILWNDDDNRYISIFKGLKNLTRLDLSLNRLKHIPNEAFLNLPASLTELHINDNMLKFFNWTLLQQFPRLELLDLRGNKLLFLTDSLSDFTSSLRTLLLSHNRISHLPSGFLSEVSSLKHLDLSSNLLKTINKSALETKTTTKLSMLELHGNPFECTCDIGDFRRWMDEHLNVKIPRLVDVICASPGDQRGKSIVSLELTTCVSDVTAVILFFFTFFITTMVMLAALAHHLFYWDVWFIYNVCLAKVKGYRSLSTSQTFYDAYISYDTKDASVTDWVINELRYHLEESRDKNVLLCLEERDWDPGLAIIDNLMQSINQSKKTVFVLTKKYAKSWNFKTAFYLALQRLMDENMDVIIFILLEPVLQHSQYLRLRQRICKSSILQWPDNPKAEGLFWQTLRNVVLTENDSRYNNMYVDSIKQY
As to the kind of experiment: HEK293-Blue-hTLR-8 cells assay.

A further test has as its target T2, human TLR7 (Homo sapiens, UniProt Q9NYK1).
T2 construct: host or cells: HEK293 (HEK-Blue hTLR7)
T2 sequence (Q9NYK1 27-1049): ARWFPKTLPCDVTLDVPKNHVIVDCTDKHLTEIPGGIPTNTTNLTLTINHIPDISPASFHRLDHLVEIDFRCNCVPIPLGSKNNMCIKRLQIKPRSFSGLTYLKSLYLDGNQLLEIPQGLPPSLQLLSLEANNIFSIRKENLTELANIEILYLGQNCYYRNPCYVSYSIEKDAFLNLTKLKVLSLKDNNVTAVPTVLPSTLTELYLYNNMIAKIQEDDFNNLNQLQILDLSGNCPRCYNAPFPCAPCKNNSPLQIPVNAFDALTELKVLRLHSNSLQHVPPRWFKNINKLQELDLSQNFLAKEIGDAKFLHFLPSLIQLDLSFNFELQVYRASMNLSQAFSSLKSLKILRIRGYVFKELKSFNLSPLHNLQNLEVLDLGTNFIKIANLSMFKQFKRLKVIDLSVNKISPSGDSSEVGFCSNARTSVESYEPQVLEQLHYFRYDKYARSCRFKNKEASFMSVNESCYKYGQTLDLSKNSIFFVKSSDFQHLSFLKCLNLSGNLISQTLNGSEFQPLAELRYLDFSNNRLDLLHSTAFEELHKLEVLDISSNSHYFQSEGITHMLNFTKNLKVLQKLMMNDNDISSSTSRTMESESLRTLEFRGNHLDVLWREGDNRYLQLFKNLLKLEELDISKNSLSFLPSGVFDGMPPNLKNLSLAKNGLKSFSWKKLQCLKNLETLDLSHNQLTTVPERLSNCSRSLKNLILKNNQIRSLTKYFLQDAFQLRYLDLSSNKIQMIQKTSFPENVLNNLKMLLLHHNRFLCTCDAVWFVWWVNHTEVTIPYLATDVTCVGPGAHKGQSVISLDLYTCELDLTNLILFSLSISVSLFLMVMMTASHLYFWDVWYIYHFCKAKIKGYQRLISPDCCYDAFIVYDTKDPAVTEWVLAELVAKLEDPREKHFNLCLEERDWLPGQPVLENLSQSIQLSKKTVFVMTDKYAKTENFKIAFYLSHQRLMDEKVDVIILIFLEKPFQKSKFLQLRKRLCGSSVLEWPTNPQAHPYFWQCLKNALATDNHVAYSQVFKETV
As to the kind of experiment: HEK293-Blue-hTLR-7 cells assay. The class given is cell-based. Particulars: HEK293-Blue-hTLR7 cells, R848 stimulation, 20 hrs, SEAP reporter; read-out: HEK/hTLR7 IC50.

Description for human TLR8: The following tests were carried out in order to determine the activity of the compounds of formula (I) and (Ia) in HEK293-Blue-hTLR-7/8/9 cells assay.
HEK293-Blue-hTLR-8 Cells Assay:
A stable HEK293-Blue-hTLR-8 cell line was purchased from InvivoGen (Cat. #: hkb-htlr8, San Diego, Calif., USA). These cells were originally designed for studying the stimulation of human TLR8 by monitoring the activation of NF-κB. A SEAP (secreted embryonic alkaline phosphatase) reporter gene was placed under the control of the IFN-β minimal promoter fused to five NF-κB and AP-1-binding sites. The SEAP was induced by activating NF-κB and AP-1 via stimulating HEK-Blue hTLR8 cells with TLR8 ligands. Therefore, the reporter expression was declined by TLR8 antagonist under the stimulation of a ligand, such as R848, for incubation of 20 hrs. The cell culture supernatant SEAP reporter activity was determined using QUANTI-Blue™ kit (Cat. #: rep-qb1, Invivogen, San Diego, Calif., USA) at a wavelength of 640 nm, a detection medium that turns purple or blue in the presence of alkaline phosphatase.

`C[C@@H]1CN(c2ccc(C#N)c3ncccc23)C[C@@H]2CN(Cc3ccc4c(c3)CNCC4)CCN21` [Example 5, 5-[(4R,9aS)-4-methyl-8-(1,2,3,4-tetrahydroisoquinolin-7-ylmethyl)-3,4,6,7,9,9a-hexahydro-1H-pyrazino[1,2-a]pyrazin-2-yl]quinoline-8-carbonitrile]: the IC50 at human TLR8 is 0.012 µM; at human TLR7, 0.017 µM.
For `[2H]c1ccc2c(N3C[C@@H]4CN(c5ccc([C@@H]6CNCCO6)cc5)CCN4[C@@H](C)C3)ccc(C#N)c2n1` [Example 106, 5-[(4S,9aS)-4-methyl-8-[4-[(2R)-morpholin-2-yl]phenyl]-3,4,6,7,9,9a-hexahydro-1H-pyrazino[1,2-a]pyrazin-2-yl]-2-deuterio-quinoline-8-carbonitrile] the same measures were 0.004 µM and 0.002 µM.
For `C[C@@H]1CN(c2ccc(C#N)c3ncccc23)C[C@@H]2CN(c3nccc4c3CCNC4)CCN21` [Example 16, 5-[(4R,9aR)-4-methyl-8-(5,6,7,8-tetrahydro-2,6-naphthyridin-1-yl)-3,4,6,7,9,9a-hexahydro-1H-pyrazino[1,2-a]pyrazin-2-yl]quinoline-8-carbonitrile] the same measures were 0.009 µM and 0.006 µM.
For `[2H]c1ccc2c(N3C[C@@H]4CN(CCc5ccc(N6C[C@H]7NCCO[C@@H]7C6)nc5)CCN4[C@H](C)C3)ccc(C#N)c2n1` [Example 77, 5-[(4R,9aS)-8-[2-[6-[(4aR,7aR)-3,4,4a,5,7,7a-hexahydro-2H-pyrrolo[3,4-b][1,4]oxazin-6-yl]-3-pyridyl]ethyl]-4-methyl-3,4,6,7,9,9a-hexahydro-1H-pyrazino[1,2-a]pyrazin-2-yl]-2-deuterio-quinoline-8-carbonitrile] the same measures were 0.024 µM and 0.021 µM.
For `[2H]c1ccc2c(N3C[C@@H]4CN(c5ncc(N6C[C@@H]7C[C@H]6CN7)cc5C)CCN4[C@@H](C)C3)ccc(C#N)c2n1` [Example 111, 5-[(4S,9aR)-8-[5-[(1S,4S)-2,5-diazabicyclo[2.2.1]heptan-2-yl]-3-methyl-2-pyridyl]-4-methyl-3,4,6,7,9,9a-hexahydro-1H-pyrazino[1,2-a]pyrazin-2-yl]-2-deuterio-quinoline-8-carbonitrile], the IC50 against human TLR8 amounted to 0.005 µM; on human TLR7, 0.006 µM.
The corresponding values for `Cc1cnc(N2CCN3[C@@H](C2)CN(c2ccc(C#N)c4ncccc24)C[C@H]3C)nc1N1CCNCC1` [Example 43, 5-[(4R,9aR)-4-methyl-8-(5-methyl-4-piperazin-1-yl-pyrimidin-2-yl)-3,4,6,7,9,9a-hexahydro-1H-pyrazino[1,2-a]pyrazin-2-yl]quinoline-8-carbonitrile] are 0.013 µM and 0.009 µM.
The corresponding values for `[2H]c1ccc2c(N3C[C@@H]4CN(c5ccc(CCN6C[C@H](OC)[C@@H](N)C6)cn5)CCN4[C@H](C)C3)ccc(C#N)c2n1` [Example 109, 5-[(4R,9aR)-8-[5-[2-[(3S,4S)-3-amino-4-methoxy-pyrrolidin-1-yl]ethyl]-2-pyridyl]-4-methyl-3,4,6,7,9,9a-hexahydro-1H-pyrazino[1,2-a]pyrazin-2-yl]-2-deuterio-quinoline-8-carbonitrile] are 0.004 µM and 0.005 µM.
For `Cc1cc(N2CCNCC2)ncc1N1CCN2CCN(c3ccc(C#N)c4ncccc34)CC2C1` (stereo not drawn) [Example 38, 5-[2-(4-methyl-6-piperazin-1-yl-3-pyridyl)-3,4,6,7,9,9a-hexahydro-1H-pyrazino[1,2-a]pyrazin-8-yl]quinoline-8-carbonitrile] the same measures were 0.008 µM and 0.002 µM.
Turning to `Cc1cc(N2CCN3[C@@H](C2)CN(c2ccc(C#N)c4ncccc24)C[C@H]3C)nc(N2CC(C)(N)C2)n1` [Example 55, 5-[(4R,9aR)-8-[2-(3-amino-3-methyl-azetidin-1-yl)-6-methyl-pyrimidin-4-yl]-4-methyl-3,4,6,7,9,9a-hexahydro-1H-pyrazino[1,2-a]pyrazin-2-yl]quinoline-8-carbonitrile], the IC50 came to 0.04 µM against human TLR8 and 0.015 µM on human TLR7.
For `C[C@@H]1CN(c2ccc(C#N)c3ncccc23)C[C@@H]2CN(c3ccnc(N4CC[C@@](C)(N)C4)c3)CCN21` [Example 105, 5-[(4R,9aS)-8-[2-[(3R)-3-amino-3-methyl-pyrrolidin-1-yl]-4-pyridyl]-4-methyl-3,4,6,7,9,9a-hexahydro-1H-pyrazino[1,2-a]pyrazin-2-yl]quinoline-8-carbonitrile] the same measures were 0.007 µM and 0.026 µM.
The corresponding values for `C[C@@H]1CN(c2ccc(C#N)c3ncccc23)C[C@@H]2CN(c3cccc4c3CNC4)CCN21` [Example 9, 5-[(4R,9aS)-8-isoindolin-4-yl-4-methyl-3,4,6,7,9,9a-hexahydro-1H-pyrazino[1,2-a]pyrazin-2-yl]quinoline-8-carbonitrile] are 0.001 µM and 0.003 µM.
For `C[C@@H]1CN(c2ccc(C#N)c3ncccc23)C[C@@H]2CN(c3ccnc(N4CC(C)(N)C4)c3)CCN21` [Example 56, 5-[(4R,9aS)-8-[2-(3-amino-3-methyl-azetidin-1-yl)-4-pyridyl]-4-methyl-3,4,6,7,9,9a-hexahydro-1H-pyrazino[1,2-a]pyrazin-2-yl]quinoline-8-carbonitrile] the same measures were 0.008 µM and 0.013 µM.
Turning to `C[C@@H]1CN(c2ccc(C#N)c3ncccc23)C[C@@H]2CN(Cc3cccc4c3CCNC4)CCN21` [Example 70, 5-[(4R,9aS)-4-methyl-8-(1,2,3,4-tetrahydroisoquinolin-5-ylmethyl)-3,4,6,7,9,9a-hexahydro-1H-pyrazino[1,2-a]pyrazin-2-yl]quinoline-8-carbonitrile], the IC50 on human TLR8 stood at 0.012 µM; at human TLR7 it was 0.011 µM.
For `C[C@@H]1CN(c2ccc(C#N)c3ncccc23)C[C@@H]2CN(CCc3ccc(N4CC5(CN(C)C5)C4)nc3)CCN21` [Example 22, 5-[(4R,9aS)-4-methyl-8-[2-[6-(6-methyl-2,6-diazaspiro[3.3]heptan-2-yl)-3-pyridyl]ethyl]-3,4,6,7,9,9a-hexahydro-1H-pyrazino[1,2-a]pyrazin-2-yl]quinoline-8-carbonitrile] the same measures were 0.058 µM and 0.026 µM.
The corresponding values for `[2H]c1ccc2c(N3C[C@@H]4CN(CCc5ccc(N6CC7(CN(C)C7)C6)nc5)CCN4[C@H](C)C3)ccc(C#N)c2n1` [Example 64, 5-[(4R,9aS)-4-methyl-8-[2-[6-(6-methyl-2,6-diazaspiro[3.3]heptan-2-yl)-3-pyridyl]ethyl]-3,4,6,7,9,9a-hexahydro-1H-pyrazino[1,2-a]pyrazin-2-yl]-2-deuterio-quinoline-8-carbonitrile] are 0.032 µM and 0.023 µM.
